The assay has as its target T1, C5a anaphylatoxin chemotactic receptor 1 (Homo sapiens, UniProt P21730).
T1 sequence (P21730 whole entry): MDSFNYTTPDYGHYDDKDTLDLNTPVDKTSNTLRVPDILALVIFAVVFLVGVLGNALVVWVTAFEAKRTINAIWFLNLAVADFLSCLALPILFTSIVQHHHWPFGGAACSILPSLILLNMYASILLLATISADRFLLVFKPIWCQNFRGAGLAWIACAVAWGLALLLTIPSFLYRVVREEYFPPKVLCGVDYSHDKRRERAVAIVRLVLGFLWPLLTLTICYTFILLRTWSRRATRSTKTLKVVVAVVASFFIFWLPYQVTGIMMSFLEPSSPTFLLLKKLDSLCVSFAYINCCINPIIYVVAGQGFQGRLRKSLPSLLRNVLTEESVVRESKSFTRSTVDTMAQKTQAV
Kind of assay: ChEBML_41457. The text has this: Tested for its ability to compete with [125I]C5a for binding to C5a anaphylatoxin chemotactic receptor of human neutrophil membrane preparations

Results on four compounds are retold here after BindingDB's records for doi:10.1016/S0960-894X(96)00606-3 (1997).

As usually defined, the IC50 is the concentration needed to halve the response being measured. A lower IC50 goes with greater potency. Compound `NCCCCc1[nH]c(=O)n([C@H](CC2CCCCC2)C(=O)N2CCC3(CCc4ccccc43)CC2)c1O` [5-(4-aminobutyl)-3-[1-cyclohexylmethyl-2-oxo-2-spiro[2,3-dihydro-1H-indene-1,4'-(hexahydropyridine)]-1-yl-(1R)-ethyl]-(5R)-tetrahydro-1H-2,4-imidazoledione] came in with an IC50 of 4 µM.

In turn, `N=C(N)NCCCc1[nH]c(=O)n([C@H](Cc2ccc(O)cc2)C(=O)N2CCC3(CCc4ccccc43)CC2)c1O` [5-[3-amino(imino)methylaminopropyl]-3-[1-(4-hydroxybenzyl)-2-oxo-2-spiro[2,3-dihydro-1H-indene-1,4'-(hexahydropyridine)]-1-yl-(1R)-ethyl]-(5R)-tetrahydro-1H-2,4-imidazoledione] had an IC50 of 4 µM.

Take `CCC[C@H](C(=O)N1CCC2(CCc3ccccc32)CC1)n1c(O)c(CCCNC(=N)N)[nH]c1=O` [5-[3-amino(imino)methylaminopropyl]-3-[1-spiro[2,3-dihydro-1H-indene-1,4'-(hexahydropyridine)]-1-ylcarbonyl-(1R)-butyl]-(5R)-tetrahydro-1H-2,4-imidazoledione]: half-maximal inhibition (IC50) required 3 µM.

With `N=C(N)NCCCc1[nH]c(=O)n(C(CCc2ccccc2)C(=O)N2CCC3(CCc4ccccc43)CC2)c1O` [5-[3-amino(imino)methylaminopropyl]-3-[3-phenyl-1-spiro[2,3-dihydro-1H-indene-1,4'-(hexahydropyridine)]-1-ylcarbonylpropyl]-(5R)-tetrahydro-1H-2,4-imidazoledione], the 50% inhibitory concentration (IC50) is 3 µM.
